Assay results from ChEMBL document CHEMBL1122221, “Antimycotic azoles. 6. Synthesis and antifungal properties of terconazole, a novel triazole ketal” (1983).

Key:
Cavia porcellus [1] = test: Evaluated for cure against microsporosis after topical treatment with 1% of compound in a group of 8 guinea pigs; type: functional
Microsporum canis [2] = test: Concentration for complete inhibition of growth of Microsporum canis; type: functional, organism-based
Mucor [3] = test: Concentration for complete inhibition of growth of Mucor sp.; type: functional
Cavia porcellus [4] = test: Evaluated for marked improvement against trichophytosis after topical treatment with 0.5% of compound in a group of 6 guinea pigs; type: functional
Cavia porcellus [5] = test: Evaluated for cure against trichophytosis after topical treatment with 1% of compound in a group of 6 guinea pigs; type: functional
Candida tropicalis [6] = test: Concentration for complete inhibition of growth of Candida tropicalis; type: functional, organism-based
Rattus norvegicus [7] = test: Evaluated for marked improvement against vaginal candidosis after topical treatment with 0.5% of compound in a group of 10 rats; type: functional
Rattus norvegicus [8] = test: Evaluated for cure against vaginal candidosis after topical treatment with 1% of compound in a group of 10 rats; type: functional
Candida albicans [9] = test: Concentration for complete inhibition of growth of Candida albicans; type: functional, organism-based
Sporothrix schenckii [10] = test: Concentration for complete inhibition of growth of Sporo thrix schenck ii; type: functional, organism-based
Trichophyton rubrum [11] = test: Concentration for complete inhibition of growth of Trichophyton rubrum; type: functional, organism-based
Trichophyton benhamiae [12] = test: Concentration for complete inhibition of growth of Trichophyton mentagrophytes; type: functional, organism-based; settings: Arthroderma benhamiae
Aspergillus fumigatus [13] = test: Concentration for complete inhibition of growth of Aspergillus fumigatus; type: functional, organism-based
Phialophora verrucosa [14] = test: Concentration for complete inhibition of growth of Phialophora uerrucosa; type: functional, organism-based
Cavia porcellus [15] = test: Evaluated for marked improvement against microsporosis after topical treatment with 0.5% of compound in a group of 8 guinea pigs; type: functional
Cryptococcus neoformans [16] = test: Concentration for complete inhibition of growth of Cryptococcus neo formans; type: functional, organism-based
Saprolegnia [17] = test: Concentration for complete inhibition of growth of Saprolegnia sp.; type: functional, organism-based
Cryptococcus neoformans [18] = test: Concentration for marked inhibition of growth of Cryptococcus neoformans in Sabouraud broth with 10% inactive bovine serum; type: functional, organism-based
Mucor [19] = test: Concentration for marked inhibition of growth of Mucor sp. in Sabouraud broth; type: functional
Phialophora verrucosa [20] = test: Concentration for complete inhibition of growth of Phialophora verrucosa; type: functional, organism-based
Mucor [21] = test: Concentration for complete inhibition of growth of Mucor sp. in Sabouraud broth with 10% inactive bovine serum; type: functional
Trichophyton benhamiae [22] = test: Concentration for marked inhibition of growth of Trichophyton mentagrophytes in Sabouraud broth; type: functional, organism-based; settings: Arthroderma benhamiae
Cavia porcellus [23] = test: Evaluated for cure against trichophytosis after 12 days of one time a day topical treatment with 0.5% of compound in a group of 20 guinea pigs; type: functional
Trichophyton rubrum [24] = test: Concentration for marked inhibition of growth of Trichophyton rubrum in Sabouraud broth with 10% inactive bovine serum; type: functional, organism-based
Microsporum canis [25] = test: Concentration for marked inhibition of growth of Microsporum canis in Sabouraud broth with 10% inactive bovine serum; type: functional, organism-based
Rattus norvegicus [26] = test: Evaluated for cure against vaginal candidosis after 3 days of 2 times a day topical treatment with 0.5% of compound in a group of 48 rats; type: functional
Cavia porcellus [27] = test: Evaluated for marked improvement against microsporosis after 12 days of one time a day topical treatment with 0.5% of compound in a group of 36 guinea pigs; Improved; type: functional
Microsporum canis [28] = test: Concentration for marked inhibition of growth of Microsporum canis in Sabouraud broth; type: functional, organism-based
Candida albicans [29] = test: Concentration for marked inhibition of growth of Candida albicans in Sabouraud broth; type: functional, organism-based
Candida tropicalis [30] = test: Concentration for marked inhibition of growth of Candida tropicalis in Sabouraud broth; type: functional, organism-based
Cryptococcus neoformans [31] = test: Concentration for marked inhibition of growth of Cryptococcus neoformans in Sabouraud broth; type: functional, organism-based
Cryptococcus neoformans [32] = test: Concentration for complete inhibition of growth of Cryptococcus neoformans in Sabouraud broth with 10% inactive bovine serum; type: functional, organism-based
Phialophora verrucosa [33] = test: Concentration for complete inhibition of growth of Phialophora verrucosa in Sabouraud broth with 10% inactive bovine serum; type: functional, organism-based
Rattus norvegicus [34] = test: Evaluated for marked improvement against vaginal candidosis after 3 days of 2 times a day topical treatment with 0.5% of compound in a group of 48 rats; Improved; type: functional
Saprolegnia [35] = test: Concentration for marked inhibition of growth of Saprolegnia sp. in Sabouraud broth; type: functional, organism-based
Candida tropicalis [36] = test: Concentration for complete inhibition of growth of Candida tropicalis in Sabouraud broth with 10% inactive bovine serum; type: functional, organism-based
Aspergillus fumigatus [37] = test: Concentration for complete inhibition of growth of Aspergillus fumigatus in Sabouraud broth with 10% inactive bovine serum; type: functional, organism-based
Cryptococcus neoformans [38] = test: Concentration for complete inhibition of growth of Cryptococcus neoformans; type: functional, organism-based
Aspergillus fumigatus [39] = test: Concentration for marked inhibition of growth of Aspergillus fumigatus in Sabouraud broth; type: functional, organism-based
Trichophyton benhamiae [40] = test: Concentration for complete inhibition of growth of Trichophyton mentagrophytes in Sabouraud broth with 10% inactive bovine serum; type: functional, organism-based; settings: Arthroderma benhamiae
Microsporum canis [41] = test: Concentration for complete inhibition of growth of Microsporum canis in Sabouraud broth with 10% inactive bovine serum; type: functional, organism-based
Mucor [42] = test: Concentration for marked inhibition of growth of Mucor sp. in Sabouraud broth with 10% inactive bovine serum; type: functional
Sporothrix schenckii [43] = test: Concentration for complete inhibition of growth of Sporothrix schenck ii; type: functional, organism-based
Sporothrix schenckii [44] = test: Concentration for marked inhibition of growth of Sporo thrix schenck ii in Sabouraud broth; type: functional, organism-based
Trichophyton benhamiae [45] = test: Concentration for marked inhibition of growth of Trichophyton mentagrophytes in Sabouraud broth with 10% inactive bovine serum; type: functional, organism-based; settings: Arthroderma benhamiae
Sporothrix schenckii [46] = test: Concentration for marked inhibition of growth of Sporothrix schenck ii in Sabouraud broth with 10% inactive bovine serum; type: functional, organism-based
Cavia porcellus [47] = test: Evaluated for cure against microsporosis after 12 days of one time a day topical treatment with 0.5% of compound in a group of 36 guinea pigs; type: functional
Saprolegnia [48] = test: Concentration for marked inhibition of growth of Saprolegnia sp. in Sabouraud broth with 10% inactive bovine serum; type: functional, organism-based
Aspergillus fumigatus [49] = test: Concentration for marked inhibition of growth of Aspergillus fumigatus in Sabouraud broth with 10% inactive bovine serum; type: functional, organism-based
Phialophora verrucosa [50] = test: Concentration for marked inhibition of growth of Phialophora verrucosa in Sabouraud broth with 10% inactive bovine serum; type: functional, organism-based
Cavia porcellus [51] = test: Evaluated for marked improvement against trichophytosis after 12 days of one time a day topical treatment with 0.5% of compound in a group of 20 guinea pigs; Improved; type: functional
Sporothrix schenckii [52] = test: Concentration for complete inhibition of growth of Sporothrix schenck ii in Sabouraud broth with 10% inactive bovine serum; type: functional, organism-based
Trichophyton rubrum [53] = test: Concentration for marked inhibition of growth of Trichophyton rubrum in Sabouraud broth; type: functional, organism-based
Trichophyton rubrum [54] = test: Concentration for complete inhibition of growth of Trichophyton rubrum in Sabouraud broth with 10% inactive bovine serum; type: functional, organism-based
Candida albicans [55] = test: Concentration for complete inhibition of growth of Candida albicans in Sabouraud broth with 10% inactive bovine serum; type: functional, organism-based
Phialophora verrucosa [56] = test: Concentration for marked inhibition of growth of Phialophora verrucosa in Sabouraud broth; type: functional, organism-based
Candida albicans [57] = test: Concentration for marked inhibition of growth of Candida albicans in Sabouraud broth with 10% inactive bovine serum; type: functional, organism-based
Saprolegnia [58] = test: Concentration for complete inhibition of growth of Saprolegnia sp. in Sabouraud broth with 10% inactive bovine serum; type: functional, organism-based
Candida tropicalis [59] = test: Concentration for marked inhibition of growth of Candida tropicalis in Sabouraud broth with 10% inactive bovine serum; type: functional, organism-based

## Clc1ccccc1C(c1ccccc1)(c1ccccc1)n1ccnc1 [CLOTRIMAZOLE]
Cavia porcellus [1]
  Cure: 4
Microsporum canis [2]
  Concentration: < 1 µg/mL
Mucor [3]
  Concentration: > 100 µg/mL
Cavia porcellus [4]
  Improved: 1
Cavia porcellus [5]
  Cure: 3
Candida tropicalis [6]
  Concentration: > 100 µg/mL
Rattus norvegicus [7]
  Improved: 2
Rattus norvegicus [8]
  Cure: 2
Candida albicans [9]
  Concentration: > 100 µg/mL
Sporothrix schenckii [10]
  Concentration: > 100 µg/mL
Trichophyton rubrum [11]
  Concentration: < 1 µg/mL
Trichophyton benhamiae [12]
  Concentration: < 1 µg/mL
Aspergillus fumigatus [13]
  Concentration: 100 µg/mL
Phialophora verrucosa [14]
  Concentration: > 100 µg/mL
Cavia porcellus [15]
  Improved: 1
Cryptococcus neoformans [16]
  Concentration: > 100 µg/mL
Saprolegnia [17]
  Concentration: > 100 µg/mL

## CC(C)N1CCN(c2ccc(OCC3COC(Cn4cncn4)(c4ccc(Cl)cc4Cl)O3)cc2)CC1 (configuration not stated) [TERCONAZOLE]
Cryptococcus neoformans [18]
  Concentration: 0.1 µg/mL
Mucor [19]
  Concentration: > 100 µg/mL
Phialophora verrucosa [20]
  Concentration: 100 µg/mL
Mucor [21]
  Concentration: 100 µg/mL
Trichophyton benhamiae [22]
  Concentration: 1 µg/mL
Microsporum canis [2]
  Concentration: 100 µg/mL
Cavia porcellus [23]
  Cure: 20
Trichophyton rubrum [24]
  Concentration: 1 µg/mL
Mucor [3]
  Concentration: > 100 µg/mL
Candida tropicalis [6]
  Concentration: 10 µg/mL
Microsporum canis [25]
  Concentration: 10 µg/mL
Rattus norvegicus [26]
  Cure: 35
Cavia porcellus [27]
  Activity: 17
Microsporum canis [28]
  Concentration: 100 µg/mL
Candida albicans [29]
  Concentration: 10 µg/mL
Candida albicans [9]
  Concentration: > 100 µg/mL
Candida tropicalis [30]
  Concentration: 1 µg/mL
Trichophyton rubrum [11]
  Concentration: 100 µg/mL
Cryptococcus neoformans [31]
  Concentration: 1 µg/mL
Cryptococcus neoformans [32]
  Concentration: 1 µg/mL
Phialophora verrucosa [33]
  Concentration: 10 µg/mL
Rattus norvegicus [34]
  Activity: 2
Saprolegnia [35]
  Concentration: 10 µg/mL
Candida tropicalis [36]
  Concentration: 1 µg/mL
Aspergillus fumigatus [37]
  Concentration: > 100 µg/mL
Cryptococcus neoformans [38]
  Concentration: 10 µg/mL
Aspergillus fumigatus [39]
  Concentration: > 100 µg/mL
Trichophyton benhamiae [12]
  Concentration: 1 µg/mL
Trichophyton benhamiae [40]
  Concentration: 1 µg/mL
Microsporum canis [41]
  Concentration: 100 µg/mL
Mucor [42]
  Concentration: 100 µg/mL
Sporothrix schenckii [43]
  Concentration: 100 µg/mL
Sporothrix schenckii [44]
  Concentration: 100 µg/mL
Trichophyton benhamiae [45]
  Concentration: 0.1 µg/mL
Sporothrix schenckii [46]
  Concentration: 1 µg/mL
Cavia porcellus [47]
  Cure: 19
Saprolegnia [48]
  Concentration: 1 µg/mL
Aspergillus fumigatus [13]
  Concentration: > 100 µg/mL
Aspergillus fumigatus [49]
  Concentration: 100 µg/mL
Phialophora verrucosa [50]
  Concentration: 1 µg/mL
Cavia porcellus [51]
  Activity: 0
Sporothrix schenckii [52]
  Concentration: 100 µg/mL
Trichophyton rubrum [53]
  Concentration: 10 µg/mL
Trichophyton rubrum [54]
  Concentration: 10 µg/mL
Candida albicans [55]
  Concentration: 100 µg/mL
Phialophora verrucosa [56]
  Concentration: 10 µg/mL
Candida albicans [57]
  Concentration: 0.1 µg/mL
Saprolegnia [17]
  Concentration: 100 µg/mL
Saprolegnia [58]
  Concentration: 10 µg/mL
Candida tropicalis [59]
  Concentration: 0.1 µg/mL
